Measured values from patent US20160113904A1, “SKIN CARE PRODUCTS COMPRISING SUBSTITUTED HYDROXYPROLINE WITH UNSATURATED FATTY ACIDS DERIVATIVES” (MEDWELL LABORATORIES LTD., priority 2013, published 2016).
Entries after “also recorded” stand apart in the source; their conditions may differ.

Key:
Format in all cases: in vivo, human
[1] = system: volunteers with Atopic dermatitis; test: Atopic dermatitis trial: transepidermal water loss (TEWL) by Tewameter; details: treated area
Description: (§1) Ten volunteers aged 2-30 years participated in the trial. Four females and six males.
(§2) Volunteers were instructed to apply the product only on one side of the body, on the worst affected area, while the other side was defined as the control area and was not treated. The tested material, a body lotion product, was applied 1-3 times a day for a period of 4 weeks.
Transepidermal water loss (TEWL) was measured by Tewameter 300 TM, Courage & Khazaka, CK. TEWL was recorded at baseline and after one week and after two weeks of treatment. Room temperature and humidity were kept constant.
(§3) A statistical comparison between T0 and the other two time-points (T1 and T2) and between the treated and the Control areas were made according to the Wilcoxon signed-ranks test, while p<0.05 indicated a significant difference

[2] = system: volunteers with Atopic dermatitis; test: Atopic dermatitis trial: erythema level by Mexameter; details: for Change in erythema level / Erythema level: treated area; for Erythema level: Mexameter
Description: as §1, §2
Erythema level was evaluated by Mexameter, Courage & Khazaka, CK. The probe of the Mexameter was placed on the skin at a constant pressure and measurements of skin hydration were taken. Skin erythema level was recorded at baseline, after 1 week and after 2 weeks of treatment.
as §3

[3] = system: volunteers with psoriasis; test: Psoriasis trial: subjective pruritus level; details: for Pruritus level: treated area, scale 0-5
Source text: (§4) Fifteen volunteers aged 29-73 with psoriasis.
(§5) Volunteers were instructed to apply the product only on one side of the body, on the worst affected area at least once a day, for 4 weeks, while the other side was defined as the control area and was not treated.
The volunteers were asked to assess the pruritus level on a 0-5 scale at T0, T1 and T2.
(§6) A statistical comparison between T0 and the other two time-points (T1 and T2) and between the treated and the Control areas were made by paired sample t-test, while p<0.05 indicated a significant difference

[4] = system: volunteers with psoriasis; test: Psoriasis trial: erythema level by Mexameter; details: treated area
Description: as §4, §5
Erythema level was evaluated by Mexameter, Courage & Khazaka, CK. The probe of the Mexameter was placed on the skin at a constant pressure find measurements of skin hydration were taken. Skin erythema level was recorded at baseline, after 2 weeks and after 4 weeks of treatment.
as §6

[5] = system: volunteers with psoriasis; test: Psoriasis trial: side effects; details: topical use for 4 weeks
Source text: The participants were asked to keep a record of daily applications and to note any side effects resulting from product application.
Volunteers were asked to keep a record and report any side effects, such as dryness, burning sensation, peeling of the skin, redness or any other visible changes, and report immediately to study director.

[6] = system: healthy female volunteers, facial skin; test: Anti wrinkle test: hydration level by Corneometer; details: face, treated area
Description: (§7) Ten healthy female volunteers were included and completed the study.
(§8) Moisture level of the skin (corneometry) and TEWL (Trans Epidermal Water Loss) were measured at each time point.
(§9) A cosmetic anti wrinkle product MW-001 was applied on half of the face for four weeks by each volunteer while the other half served as a control, without any product application during the whole test period.
Hydration level was evaluated by Corneometer, Courage & Khazaka, CK. The probe of the corneometer was placed on the skin at a constant pressure and measurements of skin hydration were taken. Skin hydration was recorded at T0, T1 and T2. Each measurement was repeated three times, and the average of the repeated measurements was calculated and assembled in the test results. The room temperature and humidity were kept constant.
The corneometry results are provided in arbitrary units.

[7] = system: healthy female volunteers, facial skin; test: Anti wrinkle test: TEWL by Tewameter; details: face, treated area
Description: as §7, §8, §9
TEWL (the ability not to harm the skin barrier) was measured with Tewameter TM 300, Courage & Khazaka, CK. TEWL was recorded at T0, T1 and T2. The results of TEWL in each measurement were recorded after stabilization of the curve of the results in real time. Room temperature and humidity were constant.

[8] = system: healthy female volunteers, facial wrinkles; test: Anti wrinkle test: volunteers' subjective assessment of wrinkles; details: treated side, scale 0-10
Description: as §7
A subjective assessment of facial wrinkles condition was performed by the volunteers at each time point.
as §9
The volunteers filled out a questionnaire after 2 and 4 weeks of application.
The volunteers were asked to answer a questionnaire after four weeks of application, regarding the assessment of each of the tested products, and to evaluate the improvement of the skin beneath and at the side of the eye.

[9] = system: healthy female volunteers; test: Anti wrinkle test: side effects; details: facial use for 4 weeks
Source text: Volunteers were asked to report side effects, such as dryness, burning sensation, peeling of the skin, redness, etc. immediately to the study director.

SMILES: CCC=CCC=CCC=CCC=CCC=CCC=CCCC(=O)N1CC(O)CC1C(=O)O (stereo in doubt) [MW-001]
- Change in TEWL level ([1]; Baseline): 100%
- TEWL level ([1]; T0 baseline): 13.6 g/m2/h
- TEWL level ([1]; T1 after one week): 12.5 g/m2/h
- TEWL level ([1]; T2 after two weeks): 10.5 g/m2/h
- Change in TEWL level ([1]; Week 1, relative to baseline): 92%
- Change in TEWL level ([1]; Week 2, relative to baseline): 78%
- Change in erythema level ([2]; Baseline): 100%
- Erythema level ([2]; T0 baseline): 620.5
- Erythema level ([2]; T1 after one week): 562.7
- Erythema level ([2]; T2 after two weeks): 600.2
- Change in erythema level ([2]; Week 1, relative to baseline): 91%
- Change in erythema level ([2]; Week 2, relative to baseline): 97%
- Erythema level, statistical analysis of change ([2]; treated side, after 1 week of treatment): decreased significantly
- Erythema level, statistical analysis versus baseline ([2]; treated side, after the increase following week 1): not significantly different
- Pruritus level, statistical analysis of change ([3]; any of the sides, whole study period, p>0.05): No significant change
- Pruritus level ([3]; T0 baseline): 2.1
- Pruritus level ([3]; T1 after two weeks): 1.6
- Pruritus level ([3]; T2 after four weeks): 1.3
- Erythema level ([4]; T0 baseline): 562.1
- Erythema level ([4]; T1 after two weeks): 517.5
- Erythema level ([4]; T2 after four weeks): 576.7
- Side effects / safety [5]: No side effects were observed; also recorded: safe for use
- Average hydration level ([6]; T0 baseline): 60.9 arbitrary units
- Average hydration level ([6]; T1 after 2 weeks of use): 53.4 arbitrary units
- Average hydration level ([6]; T2 after 4 weeks of use): 53.5 arbitrary units
- Average TEWL level ([7]; T0 baseline): 7.8 g/hm^2
- Average TEWL level ([7]; T1 after 2 weeks of use): 9.4 g/hm^2
- Average TEWL level ([7]; T2 after 4 weeks of use): 7.6 g/hm^2
- Volunteers' grading of improvement of wrinkle appearance ([8]; after 2 weeks of treatment): 3.5
- Volunteers' grading of wrinkle improvement around the eyes ([8]; after 2 weeks of treatment): 3.5
- Volunteers' grading of wrinkle improvement around the eyes ([8]; after 4 weeks of treatment): 4.3
- Volunteers' grading of improvement in wrinkles appearance ([8]; printed 'After 2 weeks of treatment' (second statement)): 4.6
- Side effects / safety [9]: None of the volunteers reported of any side effects; also recorded: safe for use
